Test results reported in the CheMixHub ionic liquid set.
Values joined by “and” are separate entries in the source; they are usually repeats but may differ in a detail not shown here. Equal values may be shown once.

Experiment: xn = mol fraction of the nth substance listed

C[S+](C)C.O=S(=O)([N-]S(=O)(=O)C(F)(F)F)C(F)(F)F + CC1COC(=O)O1
101 kPa
Conditions	electrical conductivity [S/m]
283.15 K, x2 = 0.76	0.862
298.15 K, x1 = 0.0005	0.035
298.15 K, x1 = 0.0008	0.044
298.15 K, x2 = 0.6202	1.29
333.15 K, x2 = 0.76	2.54

C[S+](C)C.O=S(=O)([N-]S(=O)(=O)C(F)(F)F)C(F)(F)F + CC#N
101 kPa
Conditions	electrical conductivity
264.85 K, x2 = 0.87	3.61 S/m
273.15 K, x2 = 0.87	4.06 S/m
298.15 K, x1 = 0.0001	0.027 S/m and 0.059 S/m
298.15 K, x1 = 0.0005	0.208 S/m
323.15 K, x2 = 0.87	6.94 S/m

CC(=O)[O-].CCCC[N+](CCCC)(CCCC)CCCC + CC(=O)O + O
303.15 K, 100 kPa
Conditions	viscosity [mPa·s]
x2 = 0, x3 = 0.0263	680
x2 = 0.0971, x3 = 0.0291	460
x2 = 0.194, x3 = 0.0301	297
x2 = 0.3213, x3 = 0.0263	169
x2 = 0.4883, x3 = 0.0234	83
x2 = 0.6588, x3 = 0.0167	41
x2 = 0.7897, x3 = 0.0128	25
x2 = 0.8911, x3 = 0.0099	19

NCCCNCCCN + CC(=O)[O-].CCCC[n+]1ccn(C)c1 + O
viscosity [mPa·s], 101 kPa
Conditions	298.15 K	303.15 K	308.15 K	313.15 K	318.15 K	323.15 K	328.15 K	333.15 K
x2 = 0.03479, x1 = 0.0177	3.36	3.32	3.14	2.86	2.61	2.28	1.96	1.77
x2 = 0.03897, x1 = 0.01333	3.54	3.51	3.28	2.95	2.66	2.52	2.34	2.15
x2 = 0.04311, x1 = 0.00893	3.88	3.76	3.32	2.96	2.74	2.62	2.37	2.24

CC(C)=O + CC(=O)[O-].CC[NH2+]CC
Conditions	viscosity [mPa·s]
298.15 K, 101 kPa, x2 = 0	0.309

CCCCCC[n+]1ccn(C)c1.F[B-](F)(F)F + CC(C)(C)O
298.15 K, 101 kPa
Conditions	viscosity [mPa·s]
x2 = 0.3074	69.2
x2 = 0.8007	13.92
